Marks after values point to notes of the source that are not given here.

This note sets out measurements from patent US20200337337A1, “ANIMAL FEED COMPOSITIONS COMPRISING MURAMIDASE AND USES THEREOF” (DSM IP ASSETS B.V., priority 2017, published 2020).

This test concerns male broiler chickens (Cobb 500). The test is described as follows: Experiment in vivo 1: apparent ileal digestibility of crude protein, fat and energy. The settings on record: supplemented feed: B Zn-Bacitracin 50 mg/kg; C Muramidase 40 000 U/g; Cobb 500 broilers. The source says: Day-old male broiler chickens (Cobb 500) were supplied by a commercial hatchery (Joseph Grelier S. A., Elevage avicole de la Bohadière, F-49290 Saint-Laurent de la Plaine, France).
On the day of arrival (day 1), the chickens were divided by weight into groups of 18 birds. Each group was placed in one floor-pen littered with wood shavings and allocated to one of the different treatments.
Each treatment was replicated with 12 groups. The chickens were housed in an environmentally controlled room. The room temperature was adapted to the age of the birds. In the first few days an additional infra-red electric heating lamp was placed in each pen. Moreover, in the first week feed was offered to the birds as crumbled pellets, afterwards as pelleted feed. The birds had free access to feed and water.
The experimental diets (Starter and Grower) were based on soybean meal, wheat and rye (12%) as main ingredients (Table 2). The diets were formulated to contain 210 g crude protein and 12.5 MJ/kg MEN for the starter period and 190 g crude protein and 12.9 MJ/kg MEN for the grower period.
The diets were fed either unsupplemented (negative control) or supplemented with Muramidase and Zn-Bacitracin as follows:
Appropriate amount of the solid product (Zn-Bacitracin) was mixed with a small quantity of the basal feed as a premix which was then added to the feed to get the final concentration, according to the treatments. After mixing the feed was pelleted (3×25 mm) at about 70° C.
Appropriate amount of the liquid preparations of Muramidase was diluted in water and sprayed onto the respective pelleted feed to get the final concentrations in the feed corresponding to the different treatments. For procedural balance of all treatments the same volume of water were also sprayed onto the pellets of the control diets. […]
Energy determinations were performed using an IKA®-Werke calorimeter (C 2000 basic). TiO2 concentration in feed and digesta were determined by Induction Coupled Plasma (ICP) according to DIN EN ISO 11885:1997 (DIN EN ISO 1998) after H2SO4/Na2SO4 mineralization. […]

Turning to Zn-Bacitracin, the “Apparent ileal digestibility Energy (%)” value was 90.1^a %, the “Apparent ileal digestibility Fat (%)” value was 82.2^a % and the “Apparent ileal digestibility Protein (%)” value is on record as 76.3^a %.
